Test results taken from patent US20060074079A1, “Solid pharmaceutical formulations comprising Diacereine and Meloxicam” (Leopoldo Espinosa Abdala, priority 2004, published 2006).

Experiments:
[1] = test system: gout arthritis induced by intra-articular uric acid; assay: Pain Induced Functional Impairment model in the Rat (PIFIR), analgesic activity; format: in vivo, male Wistar rats; details: oral, single doses, rats with gout arthritis, FIG. 1
Procedure: The experiments were carried out using male Wistar rats having a body weight between 180 and 200 g. […] The number of test animals was taken to the minimal (6 animals for each experimental aspect). Animals were kept in a room with light/darkness cycles. Rats were fastened twelve hours prior the beginning of experiments, leaving only free access to water. All the experiments were run during the light phase, using the animals only once.
The evaluation of analgesic effects was carried out using the Pain Induced Functional Impairment model in the Rat (PIFIR) model. Animals were anesthetized in a glass desiccator saturated with ether vapors. Gout arthritis was induced, upon application of a intra-articular injection of 0.05 ml of uric acid suspended in mineral oil, in the right-side hind leg, exactly in the femoral-tibio-patellar joint. […] Variable measured was contact time of each hind leg of every rat in the cylinder.
Rats were administered with each of the compounds orally. […] This period of time (2.5 hours after administration of uric acid) was considered as time “0”, in order to administer in this point of time the antinociceptive or analgesic treatment and the temporary course of each treatment were determined during the following 4 continuous hours. […]
Data are expressed as Percentage of Functionality Index (FI %). […]

[2] = test system: Interleukin-1 beta production in human monocytes; details: human monocytes in vitro (Berdah et al., 1993); cited from earlier work
[3] = test system: cyclooxygenase (COX) from kidney or platelet; details: from kidney or platelet (LaVilla et al., 1989); cited from earlier work
[4] = clinical trials, administered to 2 years; cited from earlier work

| Structure (SMILES) | TC efficacy (analgesic effect, FI % temporal course) [1] | Interleukin-1 beta production [2] | activity of cyclooxygenase (COX) [3] | safety on long-term administration [4] |
| --- | --- | --- | --- | --- |
| CC(=O)Oc1cccc2c1C(=O)c1c(OC(C)=O)cc(C(=O)O)cc1C2=O [Diacereine, 1,8-diacetoxy-3-carboxy-anthraquinone] | unable to generate analgesic effects | inhibit | does not disrupt | without having safety problems |
| O=C(O)c1cc(O)c2c(c1)C(=O)c1cccc(O)c1C2=O [reine, Reine] |  | inhibit |  |  |
